Assay results taken from patent publication US11685729B2, “C5a receptor modulators” (IDORSIA PHARMACEUTICALS LTD., priority 2018, dated 2023).

Biological target: C5AR1 (Homo sapiens (Human), UniProt P21730)
Assay: In vitro assay: PathHunter beta-arrestin antagonist assay in CHO-K1 C5AR1 beta-arrestin cell line, stimulated with C5a agonist
Conditions: read-out: C5aR IC50; CHO-K1 C5AR1 beta-arrestin cell line; 1-10 nM C5a agonist; geometric mean values
Procedure: 5 μl Antagonist at 6-fold end concentration or DMSO control is added to assay medium and subsequently 5 μl 1-10 nM C5a agonist at 6 fold end concentration. Cells are centrifuged for 1 min at 1000 rpm and incubated for 1.5 hour in at 37° C. Plates are equilibrated at room temperature for several minutes before adding 12 μI/well Detection Reagent (PathHunter Detection Kit, DiscoverX, Cat #93-0001). Plates are centrifuged for 1 min at 1000 rpm and incubated for 45 minutes at RT before being measured on a Fluostar Optima, BMG Labtech. IC50 values are calculated from a serial dilution range of antagonist using inhouse software and given in nmol/l.
The calculated IC50 values may fluctuate depending on the daily cellular assay performance. […] Average IC50 values from several measurements are given as geometric mean values.

Chain of C5AR1 (P21730 whole entry): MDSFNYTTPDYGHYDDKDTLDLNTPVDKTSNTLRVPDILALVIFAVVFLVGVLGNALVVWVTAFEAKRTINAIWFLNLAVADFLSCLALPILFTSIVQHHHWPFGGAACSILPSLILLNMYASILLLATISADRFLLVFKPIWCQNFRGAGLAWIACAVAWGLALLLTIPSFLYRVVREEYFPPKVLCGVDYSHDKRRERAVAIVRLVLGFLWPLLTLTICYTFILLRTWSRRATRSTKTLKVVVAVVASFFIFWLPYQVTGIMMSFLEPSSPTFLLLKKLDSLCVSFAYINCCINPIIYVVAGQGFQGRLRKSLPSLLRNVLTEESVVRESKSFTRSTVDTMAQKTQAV

SMILES | IC50
COc1ccccc1CN1C(=O)N([C@@H]2CCN(c3c(C)cccc3F)C2)Cc2ccccc21 [Example 35, 3-[(R)-1-(2-Fluoro-6-methyl-phenyl)-pyrrolidin-3-yl]-1-(2-methoxy-benzyl)-3,4-dihydro-1H-quinazolin-2-one] | 0.043 µM
COc1ccccc1CN1C(=O)N(C2CCN(c3c(C)cccc3C)CC2)Cc2ccccc21 [Example 36, 3-[1-(2,6-Dimethyl-phenyl)-piperidin-4-yl]-1-(2-methoxy-benzyl)-3,4-dihydro-1H-quinazolin-2-one] | 0.199 µM
COc1ccccc1CN1C(=O)N(C2CCN(c3c(C)cccc3F)CC2)Cc2ccccc21 [Example 37, 3-[1-(2-Fluoro-6-methyl-phenyl)-piperidin-4-yl]-1-(2-methoxy-benzyl)-3,4-dihydro-1H-quinazolin-2-one] | 0.138 µM
N#Cc1cccc(F)c1N1CCC(N2Cc3ccccc3N(Cc3nccnc3C(F)(F)F)C2=O)CC1 [Example 38, 3-Fluoro-2-{4-[2-oxo-1-(3-trifluoromethyl-pyrazin-2-ylmethyl)-1,4-dihydro-2H-quinazolin-3-yl]-piperidin-1-yl}-benzonitrile] | 0.211 µM
COc1nccnc1CN1C(=O)N(C2CCN(c3c(F)cccc3C#N)CC2)Cc2ccccc21 [Example 39, 3-Fluoro-2-{4-[1-(3-methoxy-pyrazin-2-ylmethyl)-2-oxo-1,4-dihydro-2H-quinazolin-3-yl]-piperidin-1-yl}-benzonitrile] | 1.05 µM
COc1ccccc1C(C)N1C(=O)N(C2CCN(c3c(C)cccc3F)CC2)Cc2ccccc21 (stereo not drawn) [Example 40, 3-[1-(2-Fluoro-6-methyl-phenyl)-piperidin-4-yl]-1-[1-(2-methoxy-phenyl)-ethyl]-3,4-dihydro-1H-quinazolin-2-one] | 0.135 µM
Cc1cccc(F)c1N1CCC(N2Cc3ccnnc3N(Cc3ccccc3C(F)(F)F)C2=O)CC1 [Example 41, 6-[1-(2-Fluoro-6-methyl-phenyl)-piperidin-4-yl]-8-(2-trifluoromethyl-benzyl)-5,8-dihydro-6H-pyrimido[4,5-c]pyridazin-7-one] | 0.109 µM
Cc1cccc(F)c1N1CCC(N2Cc3ccccc3N(Cc3nccnc3C(F)(F)F)C2=O)CC1 [Example 42, 3-[1-(2-Fluoro-6-methyl-phenyl)-piperidin-4-yl]-1-(3-trifluoromethyl-pyrazin-2-ylmethyl)-3,4-dihydro-1H-quinazolin-2-one] | 0.063 µM
COc1nccnc1CN1C(=O)N(C2CCN(c3c(C)cccc3F)CC2)Cc2ccccc21 [Example 43, 3-[1-(2-Fluoro-6-methyl-phenyl)-piperidin-4-yl]-1-(3-methoxy-pyrazin-2-ylmethyl)-3,4-dihydro-1H-quinazolin-2-one] | 0.299 µM
Cc1cccc(F)c1N1CCC(N2Cc3ccccc3N(Cc3ccccc3OC(C)C)C2=O)CC1 [Example 44, 3-[1-(2-Fluoro-6-methyl-phenyl)-piperidin-4-yl]-1-(2-isopropoxy-benzyl)-3,4-dihydro-1H-quinazolin-2-one] | 0.033 µM
Cc1cccc(F)c1N1CCC(N2Cc3ccccc3N(C(C)c3ccccc3C(F)(F)F)C2=O)CC1 (stereo not drawn) [Example 45, 3-[1-(2-Fluoro-6-methyl-phenyl)-piperidin-4-yl]-1-[1-(2-trifluoromethyl-phenyl)-ethyl]-3,4-dihydro-1H-quinazolin-2-one] | 0.191 µM
CCOc1ccccc1CN1C(=O)N(C2CCN(c3c(C)cccc3F)CC2)Cc2ccccc21 [Example 46, 1-(2-Ethoxy-benzyl)-3-[1-(2-fluoro-6-methyl-phenyl)-piperidin-4-yl]-3,4-dihydro-1H-quinazolin-2-one] | 0.035 µM
Cc1cccc(F)c1N1CCC(N2Cc3ccccc3N(Cc3ccccc3OCCN(C)C)C2=O)CC1 [Example 47, 1-[2-(2-Dimethylamino-ethoxy)-benzyl]-3-[1-(2-fluoro-6-methyl-phenyl)-piperidin-4-yl]-3,4-dihydro-1H-quinazolin-2-one] | 1.66 µM
CC(=O)OCCOc1ccccc1CN1C(=O)N(C2CCN(c3c(C)cccc3F)CC2)Cc2ccccc21 [Example 48, Acetic acid 2-(2-{3-[1-(2-fluoro-6-methyl-phenyl)-piperidin-4-yl]-2-oxo-3,4-dihydro-2H-quinazolin-1-ylmethyl}-phenoxy)-ethyl ester] | 0.298 µM
COC(=O)C(c1ccccc1OC)N1C(=O)N(C2CCN(c3c(C)cccc3F)CC2)Cc2ccccc21 (stereo not drawn) [Example 49, {3-[1-(2-Fluoro-6-methyl-phenyl)-piperidin-4-yl]-2-oxo-3,4-dihydro-2H-quinazolin-1-yl}-(2-methoxy-phenyl)-acetic acid methyl ester] | 0.102 µM
Cc1cccc(F)c1N1CCC(N2Cc3ccccc3N(Cc3ccccc3OCCO)C2=O)CC1 [Example 50, 3-[1-(2-Fluoro-6-methyl-phenyl)-piperidin-4-yl]-1-[2-(2-hydroxy-ethoxy)-benzyl]-3,4-dihydro-1H-quinazolin-2-one] | 2.56 µM
Cc1cccc(F)c1N1CCC(N2Cc3ccccc3N(Cc3ccccc3OC3COC3)C2=O)CC1 [Example 51, 3-[1-(2-Fluoro-6-methyl-phenyl)-piperidin-4-yl]-1-[2-(oxetan-3-yloxy)-benzyl]-3,4-dihydro-1H-quinazolin-2-one] | 0.113 µM
Cc1cccc(F)c1N1CCC(N2Cc3ccccc3N(Cc3ccccc3OC3CCC3)C2=O)CC1 [Example 52, 1-(2-Cyclobutoxy-benzyl)-3-[1-(2-fluoro-6-methyl-phenyl)-piperidin-4-yl]-3,4-dihydro-1H-quinazolin-2-one] | 0.069 µM
Cc1cccc(F)c1N1CCC(N2Cc3ccccc3N(Cc3ccccc3OC3CCOCC3)C2=O)CC1 [Example 53, 3-[1-(2-Fluoro-6-methyl-phenyl)-piperidin-4-yl]-1-[2-(tetrahydro-pyran-4-yloxy)-benzyl]-3,4-dihydro-1H-quinazolin-2-one] | 0.032 µM
Cc1cccc(F)c1N1CCC(N2Cc3ccccc3N(Cc3ccccc3OCC3CC3)C2=O)CC1 [Example 54, 1-(2-Cyclopropylmethoxy-benzyl)-3-[1-(2-fluoro-6-methyl-phenyl)-piperidin-4-yl]-3,4-dihydro-1H-quinazolin-2-one] | 0.066 µM
Cc1cccc(F)c1N1CCC(N2Cc3ccccc3N(Cc3ccccc3OCC#N)C2=O)CC1 [Example 55, (2-{3-[1-(2-Fluoro-6-methyl-phenyl)-piperidin-4-yl]-2-oxo-3,4-dihydro-2H-quinazolin-1-ylmethyl}-phenoxy)-acetonitrile] | 0.512 µM
Cc1cccc(F)c1N1CCC(N2Cc3ccccc3N(Cc3ccccc3C3CC3)C2=O)CC1 [Example 56, 1-(2-Cyclopropyl-benzyl)-3-[1-(2-fluoro-6-methyl-phenyl)-piperidin-4-yl]-3,4-dihydro-1H-quinazolin-2-one] | 0.028 µM

More lines, now with the values ahead:

IC50 | SMILES
0.024 µM | Cc1cccc(F)c1N1CCC(N2Cc3ccccc3N(Cc3ccccc3C(C)C)C2=O)CC1 [Example 57, 3-[1-(2-Fluoro-6-methyl-phenyl)-piperidin-4-yl]-1-(2-isopropyl-benzyl)-3,4-dihydro-1H-quinazolin-2-one]
0.021 µM | Cc1cccc(F)c1N1CCC(N2Cc3nccnc3N(Cc3ccccc3C(F)(F)F)C2=O)CC1 [Example 58, 3-[1-(2-Fluoro-6-methyl-phenyl)-piperidin-4-yl]-1-(2-trifluoromethyl-benzyl)-3,4-dihydro-1H-pteridin-2-one]
0.038 µM | Cc1cccc(F)c1N1CCC(N2Cc3ccccc3N(Cc3nccnc3OC(C)C)C2=O)CC1 [Example 59, 3-[1-(2-Fluoro-6-methyl-phenyl)-piperidin-4-yl]-1-(3-isopropoxy-pyrazin-2-ylmethyl)-3,4-dihydro-1H-quinazolin-2-one]
0.028 µM | Cc1cccc(F)c1N1CCC(N2Cc3ccccc3N(Cc3ncccc3OC(C)C)C2=O)CC1 [Example 60, 3-[1-(2-Fluoro-6-methyl-phenyl)-piperidin-4-yl]-1-(3-isopropoxy-pyridin-2-ylmethyl)-3,4-dihydro-1H-quinazolin-2-one]
0.036 µM | Cc1cccc(F)c1N1CCC(N2Cc3ccccc3N(Cc3cnccc3C(C)C)C2=O)CC1 [Example 61, 3-[1-(2-Fluoro-6-methyl-phenyl)-piperidin-4-yl]-1-(4-isopropyl-pyridin-3-ylmethyl)-3,4-dihydro-1H-quinazolin-2-one]
0.038 µM | Cc1cccc(F)c1N1CCC(N2Cc3ccccc3N(Cc3nccnc3C(C)C)C2=O)CC1 [Example 62, 3-[1-(2-Fluoro-6-methyl-phenyl)-piperidin-4-yl]-1-(3-isopropyl-pyrazin-2-ylmethyl)-3,4-dihydro-1H-quinazolin-2-one]
0.061 µM | Cc1cccc(F)c1N1CCC(N2Cc3ccccc3N(Cc3cncnc3C(C)C)C2=O)CC1 [Example 63, 3-[1-(2-Fluoro-6-methyl-phenyl)-piperidin-4-yl]-1-(4-isopropyl-pyrimidin-5-ylmethyl)-3,4-dihydro-1H-quinazolin-2-one]
0.782 µM | Cc1cccc(F)c1N1CCC(N2Cc3cncnc3N(Cc3ccccc3C(F)(F)F)C2=O)CC1 [Example 64, 3-[1-(2-Fluoro-6-methyl-phenyl)-piperidin-4-yl]-1-(2-trifluoromethyl-benzyl)-3,4-dihydro-1H-pyrimido[4,5-d]pyrimidin-2-one]
0.067 µM | Cc1cccc(F)c1N1CCC(N2Cc3ccccc3N(Cc3cccnc3C(F)(F)F)C2=O)CC1 [Example 65, 3-[1-(2-Fluoro-6-methyl-phenyl)-piperidin-4-yl]-1-(2-trifluoromethyl-pyridin-3-ylmethyl)-3,4-dihydro-1H-quinazolin-2-one]
1.92 µM | Cc1cccc(F)c1N1CCC(N2Cc3nnccc3N(Cc3ccccc3C(F)(F)F)C2=O)CC1 [Example 66, 7-[1-(2-Fluoro-6-methyl-phenyl)-piperidin-4-yl]-5-(2-trifluoromethyl-benzyl)-7,8-dihydro-5H-pyrimido[5,4-c]pyridazin-6-one]
0.046 µM | Cc1cccc(F)c1N1CCC(N2Cc3ccccc3N(Cc3cnccc3C(F)(F)F)C2=O)CC1 [Example 67, 3-[1-(2-Fluoro-6-methyl-phenyl)-piperidin-4-yl]-1-(4-trifluoromethyl-pyridin-3-ylmethyl)-3,4-dihydro-1H-quinazolin-2-one]
